Results published in ChEMBL document CHEMBL4033675, “Identification of novel 1,2,3,6-tetrahydropyridyl-substituted benzo[d]thiazoles: Lead generation and optimization toward potent and orally active EP1 receptor antagonists” (Bioorg Med Chem, 2017).
Active and inactive are the calls of the source. The calls are words filed in the database; no cut-off is given here.

How the values were obtained:
[1] = target: T1, Prostaglandin E2 receptor EP1 subtype (Rattus norvegicus, UniProt P70597); assay: Antagonist activity at rat EP1 receptor expressed in African green monkey COS1 cells assessed as inhibition of prostaglandin-E2-induced increase in intracellular calcium level preincubated for 60 secs followed by prostaglandin-E2 addition measured for 60 secs by Fluo 4-AM dye based fluorescence assay; assay type: functional, cell-based
T1 sequence (P70597 whole entry): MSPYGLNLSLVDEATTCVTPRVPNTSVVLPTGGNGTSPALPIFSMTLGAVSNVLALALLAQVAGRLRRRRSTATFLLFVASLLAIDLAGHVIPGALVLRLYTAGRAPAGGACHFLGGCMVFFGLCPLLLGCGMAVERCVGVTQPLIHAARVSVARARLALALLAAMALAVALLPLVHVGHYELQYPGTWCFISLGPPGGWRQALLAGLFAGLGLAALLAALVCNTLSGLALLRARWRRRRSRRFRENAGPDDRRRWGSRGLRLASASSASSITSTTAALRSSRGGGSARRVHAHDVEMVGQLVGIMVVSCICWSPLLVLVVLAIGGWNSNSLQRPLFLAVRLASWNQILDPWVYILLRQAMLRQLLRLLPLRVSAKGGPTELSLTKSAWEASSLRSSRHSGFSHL

Rattus norvegicus = assay: Inhibition of 17-PTP-induced increase in intravesical pressure in intraduodenally dosed rat overactive bladder model pretreated for 5 mins followed by 17-PTP treatment with 30 mins time interval for 245 mins; assay type: functional, organism-based
[2] = Half life in rat at 1 mg/kg, iv; assay type: ADME, organism-based; conditions: in vivo
[3] = AUC (0 to infinity) in rat at 1 mg/kg, iv; assay type: ADME, organism-based; parameters: dose 1 mg/kg, time infinity, route intravenous; conditions: in vivo
[4] = Volume of distribution in rat at 1 mg/kg, iv; assay type: ADME, organism-based; conditions: in vivo
[5] = Total clearance in rat at 1 mg/kg, iv; assay type: ADME, organism-based; conditions: in vivo
[6] = Initial concentration in rat at 1 mg/kg, iv; assay type: ADME, organism-based; conditions: in vivo
[7] = Chemical stability of the compound in pH 1 acidic aqueous medium; assay type: physicochemical; conditions: buffer

Row | IC50 [1] [nM] | SMILES | other results
1 | 4200 | Cc1cc(C(=O)O)nn1Cc1cc(Cl)cc2sc(N3CCS(=O)(=O)CC3)nc12 | –
2 | 30 | Cc1cc(C(=O)O)nn1Cc1cc(Cl)cc2sc(N3CCCC3)nc12 | –
3 | 430 | Cc1cc(C(=O)O)nn1Cc1cc(Cl)cc2sc(C3CCCCC3)nc12 | –
4 | 160 | C=C(C)c1cc(Cn2nc(C(=O)O)cc2C)c2nc(N3CC=CCC3)sc2c1 | –
5 | 320 | Cc1cc(C(=O)O)nn1Cc1cc(Cl)cc2sc(N3CCC3)nc12 | –
6 | 32 | Cc1cc(C(=O)O)nn1Cc1cccc2sc(N3CC=CCC3)nc12 | –
7 | 60 | O=C(O)c1ccc(Cc2cc(Cl)cc3sc(N4CC=CCC4)nc23)o1 | –
8 | 230 | Cc1cc(C(=O)O)nn1Cc1cc(C#N)cc2sc(N3CC=CCC3)nc12 | –
9 | 33 | C=C(C)c1nc2c(Cn3nc(C(=O)O)cc3C)cc(Cl)cc2s1 | –
10 | 8700 | Cc1cc(C(=O)O)nn1Cc1cc(Cl)cc2oc(-c3ccccc3)nc12 | –
11 | 6.2 | CCN(CC)c1nc2c(Cn3nc(C(=O)O)cc3C)cc(Cl)cc2s1 | –
12 | 4900 | Cc1cc(C(=O)O)nn1Cc1cc(Cl)cc2sc(N3CCN(C)CC3)nc12 | –
13 | 66 | Cc1cc(C(=O)O)nn1Cc1cc(Cl)cc2sc(N3CCSCC3)nc12 | –
14 | 17 | Cc1cc(C(=O)O)nn1Cc1cc(F)cc2sc(N3CC=CCC3)nc12 | –
15 | 8800 | CNc1cc(Cn2nc(C(=O)O)cc2C)c2nc(N3CC=CCC3)sc2c1 | –
16 | 750 | Cc1cc(C(=O)O)nn1Cc1cc(Cl)cc2nc(-c3ccccc3)oc12 | –
17 | 7950 | Cc1cc(C(=O)O)nn1Cc1cc(Cl)cc2nc(-c3ccccc3)sc12 | –
18 | 270 | Cc1cc(C(=O)O)nn1Cc1cc(Cl)cc2sc(N3CCCCCC3)nc12 | –
19 | 1.1 | Cc1cc(C(=O)O)nn1Cc1cc(Cl)cc2sc(N3CC=CCC3)nc12 | inhibition (Rattus norvegicus): Dose-dependent effect; half-life [2]: 40.7 min; AUC(0-inf) [3]: 4480 ng·h/mL; Vd [4]: 0.184 L/kg; clearance [5]: 3.79 mL/min/kg; C0 [6]: 6000 ng/mL; Stability [7]: Stable
20 | 110 | Cc1cc(C(=O)O)nn1Cc1cc(Cl)cc2sc(C3=CCCCC3)nc12 | –
21 | 210 | Cc1cc(C(=O)O)nn1Cc1cc(N(C)C)cc2sc(N3CC=CCC3)nc12 | –
22 | 64 | CC1=CCN(c2nc3c(Cn4nc(C(=O)O)cc4C)cc(Cl)cc3s2)CC1 | –

Row | IC50 [1] [nM] | SMILES | other results
23 | 51 | O=C(O)c1ccn(Cc2cc(Cl)cc3sc(N4CC=CCC4)nc23)n1 | –
24 | 13 | CCN(C)c1nc2c(Cn3nc(C(=O)O)cc3C)cc(Cl)cc2s1 | –
25 | 5200 | CC1=C(C)CN(c2nc3c(Cn4nc(C(=O)O)cc4C)cc(Cl)cc3s2)CC1 | –
26 | 31 | Cc1cc(C(=O)O)nn1Cc1cc(Cl)cc2sc(-c3ccccc3)nc12 | inhibition (Rattus norvegicus): inactive
27 | 200 | CC(=O)c1cc(Cn2nc(C(=O)O)cc2C)c2nc(N3CC=CCC3)sc2c1 | –
28 | 63 | Cc1cc(C(=O)O)nn1Cc1cc(Cl)cc2sc(N3CCOCC3)nc12 | –
29 | 7800 | Cc1cc(C(=O)O)nn1Cc1cc(N)cc2sc(N3CC=CCC3)nc12 | –
30 | 110 | Cc1cc(C(=O)O)nn1Cc1cc(Cl)cc2sc(N3CC=CC3)nc12 | –
31 | 470 | CNc1nc2c(Cn3nc(C(=O)O)cc3C)cc(Cl)cc2s1 | –
32 | 37 | COc1cc(Cn2nc(C(=O)O)cc2C)c2nc(N3CC=CCC3)sc2c1 | –
33 | 30 | CC1=CCCN(c2nc3c(Cn4nc(C(=O)O)cc4C)cc(Cl)cc3s2)C1 | –
34 | 22 | Cc1cc(C(=O)O)nn1Cc1cc(Br)cc2sc(N3CC=CCC3)nc12 | –
35 | 97 | Cc1cc(C(=O)O)nn1Cc1cc(OC(F)(F)F)cc2sc(N3CC=CCC3)nc12 | –
36 | 9.9 | C=Cc1cc(Cn2nc(C(=O)O)cc2C)c2nc(N3CC=CCC3)sc2c1 | –
37 | 270 | CCCN(CC)c1nc2c(Cn3nc(C(=O)O)cc3C)cc(Cl)cc2s1 | –
38 | 6.4 | O=C(O)c1ccc(Sc2cc(Cl)cc3sc(N4CC=CCC4)nc23)o1 | –
39 | 150 | O=C(O)c1ccc(Oc2cc(Cl)cc3sc(N4CC=CCC4)nc23)o1 | –
40 | 7900 | Cc1cc(C(=O)O)nn1Cc1cc(C(=O)O)cc2sc(N3CC=CCC3)nc12 | –
41 | 240 | O=C(O)c1ccn(Cc2cc(Cl)cc3sc(N4CC=CCC4)nc23)c1 | –
42 | 2500 | Cc1cc(Cn2nc(C(=O)O)cc2C)c2nc(N3CC=CCC3)sc2c1 | –
43 | 100 | Cc1cc(C(=O)O)nn1Cc1cc(Cl)cc2sc(N(C)C)nc12 | –
44 | 43 | Cc1cc(C(=O)O)nn1Cc1cc(Cl)cc2sc(N3CCCCC3)nc12 | –
